According to US12514908B2 (MAPI PHARMA LTD., priority 2021, dated 2026):
Several values for one entry are separate records, joined by “and”; a condition that tells them apart may be missing. Equal entries are not always repeated.

Experiments:
[1] = tested on: db/db mice; assay: Example 4 death of an animal in db/db mice (Table 10B); format: in vivo; conditions: 0.4 mg/kg, SC, Daily, animal No. 3, after Day 7 (3 h), before Day 14
[2] = Example 5 plasma concentrations and pharmacokinetic parameters in male Gottingen minipigs; format: in vivo
Procedure: […] At each time point, ˜2.0 ml of blood was withdrawn and transferred into a prelabeled K2EDTA coated vacutainers and mixed gently by inverting the tube to facilitate mixing of anticoagulant with the blood. Blood samples were kept on gel packs until centrifugation. The collected blood samples were centrifuged at 4,000 rpm for 10 min at 4° C. Plasma was separated after centrifugation. All plasma samples were transferred into pre-labeled (Animal ID No., Time point, Study No., and Group) tubes and stored at −70±10° C. until analysis. Blood glucose levels were determined for all blood collection time points.
Bioanalysis was performed using fit-for-purpose liquid chromatography mass spectrometry (LC-MS/MS) method for the quantification of semaglutide in plasma samples. Linearity range was 1 to 204 ng/ml. Semaglutide were extracted from mini pigs plasma samples using solid phase extraction technique and quantified using LC-MS/MS with Electro Spray Ionization (ESI) and multiple reaction monitoring (MRM) in positive ionization mode.

[3] = Example 6 semaglutide plasma levels in db/db mice; format: in vivo; conditions: 0.02 mg/kg/day SC daily
Procedure: Naïve control, n=5 • 2. Vehicle (db/db mice) SC administered daily (dose-(vehicle) 1 ml/kg/day, for 42 days), n=10 • 3.
Body weight and food consumption were monitored daily. Ad-lib fed blood glucose levels were measured every third day. Fasted blood glucose levels were measured on Day-14, Day-28 and Day-42. Glycated hemoglobin (hbA1c) levels were measured on Day-0, Day-28, and Day-42.

[4] = Example 4 semaglutide plasma concentrations in db/db mice; conditions: for Plasma concentrations, individual animals: SC, Daily, listed as Semaglutide API
[5] = in vivo; conditions: male, db/db, mouse, plasma, sc

Question: Which “Mortality (animal died)” value [1] does the source give for CC[C@H](C)[C@H](NC(=O)[C@H](Cc1ccccc1)NC(=O)[C@H](CCC(=O)O)NC(=O)[C@H](CCCCNC(=O)COCCOCCNC(=O)COCCOCCNC(=O)CC[C@H](NC(=O)CCCCCCCCCCCCCCCCC(=O)O)C(=O)O)NC(=O)[C@H](C)NC(=O)[C@H](C)NC(=O)[C@H](CCC(N)=O)NC(=O)CNC(=O)[C@H](CCC(=O)O)NC(=O)[C@H](CC(C)C)NC(=O)[C@H](Cc1ccc(O)cc1)NC(=O)[C@H](CO)NC(=O)[C@H](CO)NC(=O)[C@@H](NC(=O)[C@H](CC(=O)O)NC(=O)[C@H](CO)NC(=O)[C@@H](NC(=O)[C@H](Cc1ccccc1)NC(=O)[C@@H](NC(=O)CNC(=O)[C@H](CCC(=O)O)NC(=O)C(C)(C)NC(=O)[C@@H](N)Cc1cnc[nH]1)[C@@H](C)O)[C@@H](C)O)C(C)C)C(=O)N[C@@H](C)C(=O)N[C@@H](Cc1c[nH]c2ccccc12)C(=O)N[C@@H](CC(C)C)C(=O)N[C@H](C(=O)N[C@@H](CCCNC(=N)N)C(=O)NCC(=O)N[C@@H](CCCNC(=N)N)C(=O)NCC(=O)O)C(C)C [semaglutide, [Aib8, Lys26 (γGlu-2xOEG-C18 acid), Arg34]-hGLP-1-(7-37)-OH] here?
Answer: Its value is “Animal died”.

Question: And the “Mean plasma concentrations of semaglutide” value ([2]; Group 2, repeated SC 0.008 mg/kg every 3 days until Day 28, n=3, 0 h)?
Answer: Its value is 0 ng/mL.

Question: What about the level at 6 h ([2]; minipig, plasma, Group 2, repeated SC 0.008 mg/kg every 3 days until Day 28, n=3, 6 h) of the same molecule?
Answer: Its level at 6 h is 9.64 ng/mL.

Question: And the level at 12 h ([2]; minipig, plasma, Group 2, repeated SC 0.008 mg/kg every 3 days until Day 28, n=3, 12 h)?
Answer: Its level at 12 h is 10.2 ng/mL.

Question: What about the level at 24 h ([2]; minipig, plasma, Group 2, repeated SC 0.008 mg/kg every 3 days until Day 28, n=3, 24 h) of the same molecule?
Answer: The level at 24 h was 11 ng/mL.

Question: What about the level at 48 h ([2]; minipig, plasma, Group 2, repeated SC 0.008 mg/kg every 3 days until Day 28, n=3, 48 h) of the same molecule?
Answer: The level at 48 h was 9.67 ng/mL.

Question: What about the level at 72 h ([2]; minipig, plasma, Group 2, repeated SC 0.008 mg/kg every 3 days until Day 28, n=3, 72 h) of the same molecule?
Answer: The level at 72 h was 9.43 ng/mL.

Question: What about the level at 84 h ([2]; minipig, plasma, Group 2, repeated SC 0.008 mg/kg every 3 days until Day 28, n=3, 84 h) of the same molecule?
Answer: Its level at 84 h is 17.7 ng/mL.

Question: What about the level at 144 h ([2]; minipig, plasma, Group 2, repeated SC 0.008 mg/kg every 3 days until Day 28, n=3, 144 h) of the same molecule?
Answer: Its level at 144 h is 13.1 ng/mL.

Question: What about the level at 156 h ([2]; minipig, plasma, Group 2, repeated SC 0.008 mg/kg every 3 days until Day 28, n=3, 156 h) of the same molecule?
Answer: The level at 156 h was 35 ng/mL.

Question: And the level at 216 h ([2]; minipig, plasma, Group 2, repeated SC 0.008 mg/kg every 3 days until Day 28, n=3, 216 h)?
Answer: The level at 216 h was 27.3 ng/mL.

Question: And the level at 228 h ([2]; minipig, plasma, Group 2, repeated SC 0.008 mg/kg every 3 days until Day 28, n=3, 228 h)?
Answer: Its level at 228 h is 31.3 ng/mL.

Question: What about the level at 288 h ([2]; minipig, plasma, Group 2, repeated SC 0.008 mg/kg every 3 days until Day 28, n=3, 288 h) of the same molecule?
Answer: The level at 288 h was 23 ng/mL.

Question: And the level at 300 h ([2]; minipig, plasma, Group 2, repeated SC 0.008 mg/kg every 3 days until Day 28, n=3, 300 h)?
Answer: The level at 300 h was 21.3 ng/mL.

Question: What about the level at 360 h ([2]; minipig, plasma, Group 2, repeated SC 0.008 mg/kg every 3 days until Day 28, n=3, 360 h) of the same molecule?
Answer: The level at 360 h was 34 ng/mL.

Question: And the level at 504 h ([2]; minipig, plasma, Group 2, repeated SC 0.008 mg/kg every 3 days until Day 28, n=3, 504 h (For G2))?
Answer: The level at 504 h was 27.3 ng/mL.

Question: What about the level at 648 h ([2]; minipig, plasma, Group 2, repeated SC 0.008 mg/kg every 3 days until Day 28, n=3, 648 h (For G2)) of the same molecule?
Answer: Its level at 648 h is 23.4 ng/mL.

Question: And the level at 720 h ([2]; minipig, plasma, Group 2, repeated SC 0.008 mg/kg every 3 days until Day 28, n=3, 720 h (Day 30))?
Answer: The level at 720 h was 27 ng/mL.

Question: And the “course of plasma levels” value [3]?
Answer: Its value is “fluctuations with increase in plasma levels 3 h post injections”.

Question: What about the “Plasma concentrations, individual animals” value ([4]; 0.06 mg/kg, Day 1 (3 h), 0.06 mg/kg) of the same molecule?
Answer: Its value is 230 ng/mL.

Question: And the “Plasma concentrations, individual animals” value ([4]; 0.06 mg/kg, Day 7 (0 h), 0.06 mg/kg)?
Answer: The value was 206 ng/mL.

Question: What about the “Plasma concentrations, individual animals” value ([4]; 0.06 mg/kg, Day 7 (3 h), 0.06 mg/kg) of the same molecule?
Answer: Its value is 855 ng/mL.

Question: What about the “Plasma concentrations, individual animals” value ([4]; 0.06 mg/kg, Day 21 (0 h), 0.06 mg/kg) of the same molecule?
Answer: The value was 171 ng/mL and 269 ng/mL.

Question: And the “Plasma concentrations, individual animals” value ([4]; 0.06 mg/kg, Day 21 (3 h), 0.06 mg/kg)?
Answer: Its value is 867 ng/mL.

Question: And the “Plasma concentrations, individual animals” value ([4]; 0.06 mg/kg, Day 28 (0 h), 0.06 mg/kg)?
Answer: Its value is 320 ng/mL and 257 ng/mL.

Question: What about the “Plasma concentrations, individual animals” value ([4]; 0.06 mg/kg, Day 28 (3 h), 0.06 mg/kg) of the same molecule?
Answer: Its value is 474 ng/mL and 406 ng/mL.

Question: What about the “plasma levels at 3 hrs post injection” value ([4]; 0.06 mg/kg/day SC daily) of the same molecule?
Answer: Its value is “increase in plasma levels”.

Question: What about the “Plasma concentrations, individual animals” value ([4]; 0.4 mg/kg, Day 1 (3 h), 0.4 mg/kg) of the same molecule?
Answer: The value was 1310 ng/mL.

Question: And the “Plasma concentrations, individual animals” value ([4]; 0.4 mg/kg, Day 14 (3 h), 0.4 mg/kg)?
Answer: Its value is 6500 ng/mL.

Question: And the “Plasma concentrations, individual animals” value ([4]; 0.4 mg/kg, Day 21 (0 h), 0.4 mg/kg)?
Answer: Its value is 2550 ng/mL.

Question: What about the “Plasma concentrations, individual animals” value ([4]; 0.4 mg/kg, Day 28 (0 h), 0.4 mg/kg) of the same molecule?
Answer: The value was 2880 ng/mL and 1460 ng/mL.

Question: And the “Plasma concentrations, individual animals” value ([4]; 0.4 mg/kg, Day 28 (3 h), 0.4 mg/kg)?
Answer: The value was 6690 ng/mL.

Question: And the “plasma levels 3 hrs post injection” value ([4]; 0.4 mg/kg/day SC daily)?
Answer: Its value is “increase in plasma levels”.

Question: And the “dose dependence of the increase in plasma levels” value ([4]; between 0.06 and 0.4 mg/kg daily doses)?
Answer: Its value is “dose proportional”.

Question: What about the level at 24 h ([5]; 0.06 mg/kg/day) of the same molecule?
Answer: The level at 24 h was 100 to 500 ng/mL.

Question: What about the level at 24 h ([5]; 0.4 mg/kg/day) of the same molecule?
Answer: The level at 24 h was 500 to 4500 ng/mL.
